{"source": "paper PMC9057082", "about": "(RSC Advances, 2020)", "test": "Total antioxidant capacity", "type": "biochemical", "settings": "residual hydrogen peroxide measured at 505 nm; mean ± standard deviation", "data": [{"smiles": "O=C1O[C@H]([C@@H](O)CO)C(O)=C1O", "note": "[Ascorbic acid]", "values": [{"measurement": "Total anti-oxidant activity IC50", "value": "174.8 ± 12.3", "unit": "µg/mL"}]}]}
